Data: US12472160B2, “Modified-release tiopronin compositions, kits and methods for treating cystinuria and related disorders” (ALTIBIO, INC., priority 2017, dated 2025)

Key:
[1] = cited from earlier work
[2] = cited from earlier work; remark: listed apart in the source
cystinuria patients = settings: cited from earlier work
[3] = Total and free plasma tiopronin and urinary tiopronin recovery in Beagle dogs after intraduodenal administration (Example 5); format: in vivo
Protocol: The objective of this study was to evaluate total and free plasma tiopronin, and total urinary tiopronin, in an animal model (male Beagle dogs) following intraduodenal administration of tiopronin, to determine whether small intestine administration, would improve drug pharmacokinetics. Specifically, tiopronin formulations were administered to deliver 30 mg/kg per dog via single dose; and blood and urine samples then collected at different times post-dose.
Tiopronin formulations were administered to provide 30 mg/kg per dog as one single intraduodenal dose. Following administration, blood and urine samples were collected at the time points, or over the time intervals, indicated below.
(§1) Preparation of Dosing Formulations: Capsules were prepared and filled on the day of dosing, as follows. Tiopronin was dry mixed with avicel and mannitol to make a 40:30:30 mixture of tiopronin to avicel to mannitol, respectively. The dry mixes were custom filled with the appropriate amount of powder to deliver the specified doses to each dog based, on their respective body weights.
(§2) Animal Dosing and Sample Collection: This non-clinical study followed established practices and standard operating procedures of Absorption Systems and Absorption Systems Inc., as well as the study protocol. Study groups each included three dogs. The dogs were housed one per cage. The dogs were fasted for at least sixteen hours prior to each administration of the formulation. Food was given approximately eight hours post initial dosing. Animals had free access to water throughout the study.
Intraduodenal (ID) administration: Animals were anesthetized by a slow IV infusion of Propofol (6-10 mg/kg) or with an intramuscular injection of a cocktail containing ketamine (approximately 10-20 mg/kg), diazepam (3 mg/kg), and acepromazine (0.05 mg/kg) given IM about 5-10 minutes before intubation. Once animals were confirmed adequately anesthetized they were intubated and maintained using isoflurane (approximately 1-5% in oxygen 1 to 4 L/min) as necessary until dosing is complete. Formulations were administered into the proximal duodenum via endoscopic guidance to verify the dosing site. The endoscope first was maneuvered into the pyloric sphincter with camera visualization of the proximal duodenum. Once there was confirmation that the endoscope was placed between the pylorus and proximal duodenum, the test article was delivered to the proximal duodenum followed by a 5 mL flush. Upon completion of the dosing, the animals were taken off the isoflurane and allowed to recover from anesthesia. Time points began upon completion of the entire dose procedure. Following each blood sampling time point, 15 mL of water was given to each dog via syringe. […]

[4] = Total and free plasma tiopronin and urinary tiopronin recovery in Beagle dogs after oral dosing by four regimens (Example 4); format: in vivo; settings: for % of the dose (unchanged drug) found in urine / maximum plasma concentrations of free tiopronin / maximum plasma concentrations of total tiopronin: average, n=3 dogs; for free (unbound) tiopronin in plasma over time: FIG. 12
Protocol: The objective of this study was to evaluate total and free plasma tiopronin, and total urinary tiopronin, in an animal model (male Beagle dogs) following oral administration of tiopronin, according to various dose regimens, to determine whether different regimens, simulating modified release, would improve drug pharmacokinetics. Specifically, tiopronin formulations were administered to deliver 30 mg/kg per dog via single or multiple doses divided over a 12-hour period; and blood and urine samples then collected at different times post-dose.
Tiopronin formulations were administered to provide 30 mg/kg per dog according to four different dosage regimes (Leg 1, Leg 2, Leg 3, and Leg 4), as set forth in the table below. Leg 2, Leg 3, and Leg 4 (also referred to as Q6H, Q3H, and Q2H respectively) were designed to simulate modified-release formulations, in accordance with certain embodiments of the present invention. Following administration, blood and urine samples were collected at the time points, or over the time intervals, also as indicated below.
as §1, with “Capsules for Legs 1-4” for “Capsules”, “For Legs 1 and 2, tiopronin” for “Tiopronin”, “respectively; for study Legs 3 and 4, a 20:40:40 mixture of tiopronin to avicel to mannitol, respectively, was prepared.” for “respectively.”
as §2, with “six” for “sixteen”, “ten” for “eight”
Following dosing, blood and urine samples were collected according to the schedule in Table 1.
Blood samples were collected via direct venipuncture of the jugular vein or other accessible vein of the dog, and placed in chilled polypropylene tubes containing sodium heparin as an anticoagulant. Samples were maintained chilled throughout processing. Blood samples were centrifuged at 4° C. and 3,000 rpm (revolutions per minute) for 5 minutes. The first aliquot of plasma was precipitated with methanol by combining 200 μL of plasma with 600 μL of methanol in a centrifuge tube. The samples were mixed, centrifuged at 3,000 rpm for 5 minutes. The resulting supernatant was decanted into clean, labeled polypropylene tubes. The remaining plasma volume was transferred to a chilled, labeled polypropylene tube, placed on dry ice, and stored in a freezer maintained at −60° C. to −80° C. Following taking each blood sample, 15 mL of water was given to the dog via syringe.
For study Leg 1, pre-dose urine samples were collected via free catch approximately 2 hours pre-dose. For study Legs 2, 3 and 4, pre-dose urine samples were collected via catheter approximately 2 hours pre-dose. Other urine samples were collected via free catch in the cages during the indicated interval, collected into clean bottles, and kept on cold packs. Cold packs were replenished as needed during the day. At the end of each interval, the total volume of urine was collected and recorded. Each sample was well mixed and divided into two aliquots: an approximately 5 mL first aliquot, and a second aliquot of the remaining volume. Additionally, for Leg 4 only, each dog received a 60 mL subcutaneous injection of saline (2×30 mL injections at two different sites) approximately 30 minutes prior to dosing and, if urine was not present in the animal's cage at the end of the final collection interval, the final urine sample was collected by catheter. […]

[5] = Stability of tiopronin in Beagle dog plasma supernatant (pre-crashed plasma); format: in vitro ADME
Protocol: (§3) Stability Testing: Finally, short term and long term stability of tiopronin in beagle dog plasma, pre-crashed plasma (plasma supernatant), and urine were assessed using two tiopronin concentrations (50 ng/mL or 500 ng/mL) under each of the following two conditions: (1) storage on the bench top for 4 hours and (2) frozen at −80° C. for up to one month. Samples were considered stable if their concentrations were within ±20% of nominal. These samples met acceptable criteria for stability and results are presented below, in Tables 5, 6, and 7, showing the % tiopronin remaining in Beagle dog plasma (Table 5), plasma supernatant (Table 6), and urine (Table 7).
as §3, with “12, 13,” for “5, 6,”, “14,” for “7,”, “12),” for “5),”, “13),” for “6),”, “14).” for “7).”

[6] = Stability of tiopronin in Beagle dog urine; format: in vitro ADME
From the text: (§4) Samples were considered stable if their concentrations were within ±20% of nominal. These samples met acceptable criteria for stability and results are presented below, in Tables 5, 6, and 7, showing the % tiopronin remaining in Beagle dog plasma (Table 5), plasma supernatant (Table 6), and urine (Table 7).
as §4, with “12, 13,” for “5, 6,”, “14,” for “7,”, “12),” for “5),”, “13),” for “6),”, “14).” for “7).”

[7] = Stability of tiopronin in Beagle dog plasma; format: in vitro ADME
Protocol: as §3
as §3, with “12, 13,” for “5, 6,”, “14,” for “7,”, “12),” for “5),”, “13),” for “6),”, “14).” for “7).”

[8] = intraduodenal single 30 mg/kg dose, average, n=3 dogs
[9] = Leg 1 (Q12H): PO single 30 mg/kg dose
[10] = Leg 2 (Q6H): PO two 15 mg/kg doses at 0 and 6 h
[11] = Leg 3 (Q3H): PO four 7.5 mg/kg doses at 0, 3, 6, 9 h
[12] = Leg 4: PO six 5 mg/kg doses at 0, 2, 4, 6, 8, 10 h
[13] = 50 ng/mL (low), bench top (RT) for 4 hours
[14] = 50 ng/mL (low), −80° C. freezer for 1 week
[15] = 500 ng/mL (high), bench top (RT) for 4 hours
[16] = 500 ng/mL (high), −80° C. freezer for 1 week

## CC(C)(S)[C@@H](N)C(=O)O [D-penicillamine]
[1]; human, in vivo
  patients with severe side effects limiting use / who cannot tolerate the drug: 50-70%
[1]; patients with malabsorption states, presence of antacids, or after a large meal
  bioavailability: dramatically decreases
[2]
  solubility of di-sulfide complex relative to cystine: 50 times

## CC(S)C(=O)NCC(=O)O (stereo not drawn) [tiopronin, alpha-mercaptopropionylglycine]
Cystinuria patients; due to adverse reactions, need for frequent dosing, poor efficacy (Pak et al., 1986)
  cases/patients in which the drug is discontinued: about 30%
Cystinuria patients; human, in vivo
  cystinuria patients in whom medication fails (continue forming stones): 85%
[3]; ID single 30 mg/kg dose, average, n=3 dogs
  % of the dose (unchanged drug) found in urine: 30.5±19.9%
[3]; [8]
  maximum plasma concentrations of free tiopronin: 1643 ± 105 ng/mL
  maximum plasma concentrations of total tiopronin: 8640 ± 5522 ng/mL
[3]; single 30 mg/kg dose, FIG. 16
  urinary recovery of tiopronin, small intestine vs oral administration: better tiopronin recovery in urine
[4]; [9]
  % of the dose (unchanged drug) found in urine: 19.9±8.51%
  maximum plasma concentrations of free tiopronin: 11063 ± 3598 ng/mL
  maximum plasma concentrations of total tiopronin: 27900 ± 8122 ng/mL
[4]; Leg 2 (Q6H): PO 30 mg/kg as two 15 mg/kg doses at 0 and 6 h
  maximum plasma concentrations of total tiopronin: 23833 ± 5829 ng/mL
[4]; [10]
  % of the dose (unchanged drug) found in urine: 37.5±14.5%
  maximum plasma concentrations of free tiopronin: 8177 ± 2237 ng/mL
[4]; Leg 3 (Q3H): PO 30 mg/kg as four 7.5 mg/kg doses at 0, 3, 6, 9 h
  maximum plasma concentrations of total tiopronin: 10437 ± 1201 ng/mL
[4]; [11]
  % of the dose (unchanged drug) found in urine: 50.6±14.0%
  maximum plasma concentrations of free tiopronin: 3143 ± 624 ng/mL
[4]; Leg 4: PO 30 mg/kg as six 5 mg/kg doses at 0, 2, 4, 6, 8, 10 h
  maximum plasma concentrations of total tiopronin: 10297 ± 2199 ng/mL
[4]; [12]
  time of maximum plasma concentrations of free tiopronin: 3 hours post dosing
  % of the dose (unchanged drug) found in urine: 32.7±5.90%
  maximum plasma concentrations of free tiopronin: 2323 ± 589 ng/mL
[4]; Legs 1 and 2 (Q12H and Q6H)
  free (unbound) tiopronin in plasma over time: disappear from the plasma after a short period of time
[4]; Legs 3 and 4 (Q3H and Q2H)
  free (unbound) tiopronin in plasma over time: maintained
[4]; Q3H vs Q12H, Q6H, Q2H, FIG. 13
  urinary recovery of tiopronin, comparison of four dosing schedules: best tiopronin recovery in urine
[5]; [13]
  % Tiopronin Remaining in Beagle Dog Plasma Supernatant: 113%
[5]; [14]
  % Tiopronin Remaining in Beagle Dog Plasma Supernatant: 118%
[5]; 50 ng/mL (low), −80° C. freezer for 2 week
  % Tiopronin Remaining in Beagle Dog Plasma Supernatant: 105%
[5]; 50 ng/mL (low), −80° C. freezer for 4 week
  % Tiopronin Remaining in Beagle Dog Plasma Supernatant: 113%
[5]; [15]
  % Tiopronin Remaining in Beagle Dog Plasma Supernatant: 105%
[5]; [16]
  % Tiopronin Remaining in Beagle Dog Plasma Supernatant: 112%
[5]; 500 ng/mL (high), −80° C. freezer for 2 week
  % Tiopronin Remaining in Beagle Dog Plasma Supernatant: 105%
[5]; 500 ng/mL (high), −80° C. freezer for 4 week
  % Tiopronin Remaining in Beagle Dog Plasma Supernatant: 116%
[6]; High (2500 ng/mL), bench top (RT) for 4 hours
  % Tiopronin Remaining in Beagle Dog Urine: 84.9%
[6]; High (2500 ng/mL), −80° C. freezer for 1 week
  % Tiopronin Remaining in Beagle Dog Urine: 107%
[6]; High (2500 ng/mL), −80° C. freezer for 2 week
  % Tiopronin Remaining in Beagle Dog Urine: 90.9%
[6]; High (2500 ng/mL), −80° C. freezer for 4 week
  % Tiopronin Remaining in Beagle Dog Urine: 96.6%
[6]; Low (250 ng/mL), bench top (RT) for 4 hours
  % Tiopronin Remaining in Beagle Dog Urine: 113%
[6]; Low (250 ng/mL), −80° C. freezer for 1 week
  % Tiopronin Remaining in Beagle Dog Urine: 106%
[6]; Low (250 ng/mL), −80° C. freezer for 2 week
  % Tiopronin Remaining in Beagle Dog Urine: 119%
[6]; Low (250 ng/mL), −80° C. freezer for 4 week
  % Tiopronin Remaining in Beagle Dog Urine: 112%
[7]; [13]
  % Tiopronin Remaining in Beagle Dog Plasma: 109%
[7]; [14]
  % Tiopronin Remaining in Beagle Dog Plasma: 110%
[7]; 50 ng/mL (low), −80° C. freezer for 2 weeks
  % Tiopronin Remaining in Beagle Dog Plasma: 112%
[7]; 50 ng/mL (low), −80° C. freezer for 4 weeks
  % Tiopronin Remaining in Beagle Dog Plasma: 95.6%
[7]; [15]
  % Tiopronin Remaining in Beagle Dog Plasma: 87.0%
[7]; [16]
  % Tiopronin Remaining in Beagle Dog Plasma: 95.4%
[7]; 500 ng/mL (high), −80° C. freezer for 2 weeks
  % Tiopronin Remaining in Beagle Dog Plasma: 92.8%
[7]; 500 ng/mL (high), −80° C. freezer for 4 weeks
  % Tiopronin Remaining in Beagle Dog Plasma: 90.4%
